Results taken from patent US5458876A, “Control of microbial growth with lantibiotic/lysozyme formulations” (priority 1990, dated 1995).
Ends that are not written are not given here.

Tests used:
[1] = system: S. typhimurium (ATCC 14028); test: Survival of cells in citric acid buffer with nisin and/or lysozyme; type: cell-based, Salmonella typhimurium
Method: A culture of S. typhimurium (ATCC 14028) was grown overnight on nutrient broth, diluted in 10 mM citric acid buffer (pH 3.5) and added to citric acid buffer containing nisin, lysozyme or a combination thereof.

[2] = system: Listeria monocytogenes, Scott A; test: Lysis of washed cells at various pH levels (loss of absorbance at 540 nm); type: cell-based; conditions: 100 IU/ml nisin alone or 10 μg/ml lysozyme alone; 37°
Method: A culture of Listeria monocytogenes, Scott A, was grown overnight in BHI broth and harvested by centrifugation. The harvested cells were washed with 0.067M Potassium phosphate buffer (pH 6.6) and resuspended in 0.067M potassium phosphate buffer at various pH levels to a final absorbance of about 1.0 at 540 nm as determined in a Bausch & Lomb spectronic 20. Lysis of the bacteria is accompanied by a loss in absorbance at 540 nm. Nisin and lysozyme were added to these solutions to final concentrations of 100 IU/ml nisin and 10 μg/ml lysozyme and the solutions were placed in a 37° water bath whereupon the change in adsorption at 540 nm was monitored.

Staphlococcus aureus = test: Minimal inhibitory concentration in BHI broth; type: cell-based; conditions: lysozyme alone, 37° C.
Method: The synergy of nisin and lysozyme is not limited to the control of L. monocytogenes. The minimal inhibitory concentration (MIC) of nisin was lowered by the addition of lysozyme for the control of other gram positive bacteria. For example, a culture of Staphlococcus aureus was grown overnight in BHI broth and subsequently diluted into fresh BHI broth with various concentrations of nisin, lysozyme or a combination of nisin and lysozyme. […] Accordingly, one can use less nisin to provide an equivalent level of control by the addition of a synergistic amount of lysozyme.

L. monocytogenes Scott A = test: Survival of cells in citric acid buffer with subtilin and/or lysozyme; type: cell-based, Listeria monocytogenes; conditions: for Surviving Cells After 1 Hour at 25° C.: 10 mM citric acid buffer pH 5.5, untreated 7.5; for Surviving Cells After 1 Hour at 25° C. / log10 reduction: subtilin 100 μ/ml and/or lysozyme 500 ppm; for log10 reduction / effect on the L. monocytogenes cells: 1 hour at 25° C., pH 5.5; for effect on the L. monocytogenes cells: alone, subtilin 100 μ/ml or lysozyme 500 ppm
Method: A culture of L. monocytogenes Scott A was grown overnight in BHI broth and diluted 1:100 in 10 mM citric acid buffer (pH 5.5). This preparation, 100 μl, was added to 900 μl of citric acid buffer containing subtilin, lysozyme or both. The subtilin used in this experiment was prepared by the pure culture fermentation of Bacillus subtillus ATCC 6633 as described by Banerjee and Hansen in J. Biol. Chem. 1988 263 (19): 9508-9514.

L. monocytogenes = test: Growth of L. monocytogenes in inoculated raw pork sausage (surface response model); type: cell-based, Listeria monocytogenes; conditions: alone, 0-500 IU/gm nisin or 0-500 ppm lysozyme; 3 days at 5° C.
Method: L. monocytogenes can grow at 5° C. and poses a threat to some processed meats. Its control can include reduction in the rate of growth, bacteriostatic effects, and most desirably, bacteriocidal effects.
Raw sausage was inoculated with L. monocytogenes from a BHI overnight culture; various amounts of nisin and/or lysozyme were incorporated into the sausage. The treated sausage was held for either 3 or 21 days at 5° C. whereupon viable L. monocytogenes were enumerated. A surface response model was constructed over a range of 0-500 IU/gm nisin and 0-500 ppm lysozyme. The surface response model from the 3 day data are set out in the following FIG. 3. […] Similar synergies are seen at other levels of nisin and lysozyme.

[3] = system: Listeria monocytogenes Scott A; test: Disk inhibition of growth on BHI agar overlay plates; type: cell-based; conditions: 10 μl on disks, overnight 37° C.; nisin below 50 IU/ml; lysozyme up to and including 125 μg/ml; blend 50 IU/ml nisin and 50 μg/ml lysozyme
Method: A culture of Listeria monocytogenes Scott A was grown overnight in Brain Heart Infusion broth (BHI, Difco Laboratories, Inc.). Overlay plates were prepared using 25 ml of BHI agar overlayed with 4 ml BHI agar containing 10 μl of the overnight culture. Sterile antibiotic sensitivity disks were blotted with 10 μl of nisin, lysozyme or nisin/lysozyme blends at various concentrations; placed on the surface of the overlay plates and incubated overnight at 37° C.

| Substance | Surviving Cells After 1 Hour at 37° C. ([1]; 10 mM citric acid buffer pH 3.5, nisin 1000 IU/ml and/or lysozyme 500 μg/ml, untreated 7.18) | log10 reduction ([1]; 1 hour at 37° C., pH 3.5, nisin 1000 IU/ml and/or lysozyme 500 μg/ml) | effect against S. typhimurium ([1]; lysozyme 500 μg/ml alone, 1 hour at 37° C., pH 3.5) | pH of maximum lysis [2] | effect on subsequent growth of the bacteria (Staphlococcus aureus) | Surviving Cells After 1 Hour at 25° C. (L. monocytogenes Scott A) | log10 reduction (L. monocytogenes Scott A) | effect on the L. monocytogenes cells (L. monocytogenes Scott A) | control of L. monocytogenes in raw sausage (L. monocytogenes) | inhibition of bacterial growth (zone of inhibition around disks) [3] |
| --- | --- | --- | --- | --- | --- | --- | --- | --- | --- | --- |
| lysozyme | 7.08 log10 colony forming units/ml | 0.10 log10 | ineffective | 6.0-6.5 pH | did not affect | 7.4 log10 colony forming units/ml | 0.1 log10 | little effect | ineffective | nor was inhibition observed |
| subtilin (WKSESLCTPGCVTGALQTCFLQTLTCNCKISK; cysteine pairing not given here; also: lantibiotic thioether and dehydro residues, places not given here; UniProt P10946 25-56, looked up) [lantibiotic prepared by pure culture fermentation of Bacillus subtillus ATCC 6633, reference compound] | – | – | – | – | – | 7.2 log10 colony forming units/ml | 0.3 log10 | little effect | – | – |
